# From patent US20080076757A1, “MEDICINE FOR TREATING GASTROINTESTINAL DISORDER INCLUDING IRRITABLE BOWEL SYNDROME” (priority 2003, published 2008)
# What was measured:
# depression = assay: Treatment of recurrent depression in the patient of Example 4; format: in vivo, human; settings: after several weeks of the SSRI anti-depressant
# [1] = system: diarrhea-predominant irritable bowel syndrome (D-IBS); assay: Treatment of spinal-injury patients presenting diarrhea-predominant irritable bowel syndrome (case Examples 1, 3-6)
# Experimental: The complaints include diarrhea-predominant irritable bowel syndrome (D-IBS, awake and sleeping).
# The patient is treated with a total daily dose of medicine, which includes 25 mg of tricyclic antidepressant (imipramine hydrochloride) and 300 mg of stool softener (docusate sodium).
# muscarinic receptors = assay: Effect on muscarinic receptors and bowels (statement of the inventor); set-up: species or system human
# [2] = system: constipation-predominant IBS (C-IBS); settings: patients with C-IBS; cited from earlier work
smiles,measurement,setting,value
CNCCC(Oc1ccc(C(F)(F)F)cc1)c1ccccc1.Cl (centres unmarked) [Prozac®],depression symptoms,depression,begins to obtain relief from the depression symptoms
"CN(C)CCCN1c2ccccc2CCc2ccccc21.O=C(O)c1cc2ccccc2c(Cc2c(O)c(C(=O)O)cc3ccccc23)c1O [imipramine pamoate, 5-[3-(dimethylamino)propyl]-10,11-dihydro-5H-dibenzazepine 4,4-methlyenebis-(3-hydroxyl-2-napthoate)]",control of bladder and bowel functions,"[1]; Example 3: person, L5-S1 degenerative disc disease, 75 mg/day imipramine pamoate alone, oral, after several days",full control of bladder and bowel functions
same,adverse effect,"[1]; Example 3, imipramine pamoate 75 mg/day without stool softener",develops constipation
"CN(C)CCCN1c2ccccc2CCc2ccccc21 [imipramine, 5-[3-(dimethylamino)propyl]-10,11-dihydro-5H-dibenzazepine]",muscarinic receptors affected,muscarinic receptors,primarily affects the M2 and M3 muscarinic receptors
C=C1CCC2(O)C3Cc4ccc(OC5OC(C(=O)O)C(O)C(O)C5O)c5c4C2(CCN3CC2CC2)C1O5 (centres unmarked) [nalmefene glucuronide],abdominal pain or bloating,[2],did not reduce abdominal pain or bloating
same,stool consistency,[2],stool consistency was not improved
same,stool frequency,[2],increased stool frequency
same,transit time,[2],decreased transit time
